Test results published in patent publication US20030211168A1, “Drug carrier pellet production process” (priority 2000, published 2003).
Where a name gives a salt, the structure may show the parent alone.

Key:
[1] = Particle size of active drug substance; assay type: physicochemical; conditions: drug substance raw material
[2] = Solubility of active drug substances in water; assay type: physicochemical

Row | Particle size [1] [μm] | solubility [2] [mg/mL] | SMILES
1 | <10 |  | NS(=O)(=O)c1cc(C(=O)O)c(NCc2ccco2)cc1Cl [Furosemide]
2 |  | > 100 | COc1ccc([C@@H]2Sc3ccccc3N(CCN(C)C)C(=O)[C@@H]2OC(C)=O)cc1 [Diltiazem hydrochloride]
